Results published in PubChem BioAssay (NCI).
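GI50 = concentration required for 50% inhibition of growth. TGI is the concentration that stops growth completely.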

Experiments:
Experiment in all cases: growth of human tumour cells (NCI), 384-well format
MCF7 breast = test system: MCF7 breast
SK-MEL-2 melanoma = test system: SK-MEL-2 melanoma
SW-620 colon = test system: SW-620 colon
TK-10 renal = test system: TK-10 renal
OVCAR-3 ovarian = test system: OVCAR-3 ovarian
UO-31 renal = test system: UO-31 renal
NCI/ADR-RES ovarian = test system: NCI/ADR-RES ovarian
NCI-H322M lung = test system: NCI-H322M lung
HCT-116 colon = test system: HCT-116 colon
SN12C renal = test system: SN12C renal
HCC-2998 colon = test system: HCC-2998 colon
UACC-257 melanoma = test system: UACC-257 melanoma
HT29 colon = test system: HT29 colon
CCRF-CEM leukemia = test system: CCRF-CEM leukemia
ACHN renal = test system: ACHN renal
T-47D breast = test system: T-47D breast
KM12 colon = test system: KM12 colon
SR leukemia = test system: SR leukemia
OVCAR-4 ovarian = test system: OVCAR-4 ovarian
COLO 205 colon = test system: COLO 205 colon
SF-268 CNS = test system: SF-268 CNS
RXF 393 renal = test system: RXF 393 renal
NCI-H226 lung = test system: NCI-H226 lung
MDA-MB-468 breast = test system: MDA-MB-468 breast
HCT-15 colon = test system: HCT-15 colon
IGROV1 ovarian = test system: IGROV1 ovarian
RPMI-8226 leukemia = test system: RPMI-8226 leukemia
UACC-62 melanoma = test system: UACC-62 melanoma
NCI-H23 lung = test system: NCI-H23 lung

In the case of `CC1(C)CCC2(CC1)N[C@@H](C(=O)N[C@@H]1CC[C@@H](C(N)=O)OC1)[C@H](c1ccnc(Cl)c1F)[C@]21C(=O)Nc2cc(Cl)ccc21`, the GI50 (MCF7 breast) is reported as 0.0312 µM, the TGI (MCF7 breast) is reported as 0.741 µM and the GI50 (SK-MEL-2 melanoma) is reported as 1.88 µM. It also gave a TGI (SK-MEL-2 melanoma) of 3.32 µM, a GI50 (SW-620 colon) of 3.32 µM and a TGI (SW-620 colon) of 11.1 µM. The GI50 (TK-10 renal) was 2.5 µM, the TGI (TK-10 renal) was 7.33 µM and the GI50 (OVCAR-3 ovarian) was 1.66 µM. It also gave a TGI (OVCAR-3 ovarian) of 3.22 µM, a GI50 (UO-31 renal) of 0.0785 µM and a TGI (UO-31 renal) of 0.335 µM. For the same compound, the GI50 (NCI/ADR-RES ovarian) was 14 µM, the TGI (NCI/ADR-RES ovarian) was 27.2 µM and the GI50 (NCI-H322M lung) was 2.3 µM. For the same compound, the TGI (NCI-H322M lung) was 5.99 µM, the GI50 (HCT-116 colon) was 0.0352 µM and the TGI (HCT-116 colon) was 1.39 µM. For the same compound, the GI50 (SN12C renal) was 2.67 µM, the TGI (SN12C renal) was 7.98 µM and the GI50 (HCC-2998 colon) was 1.34 µM. The TGI (HCC-2998 colon) was 2.7 µM, the GI50 (UACC-257 melanoma) was 0.0946 µM and the TGI (UACC-257 melanoma) was 0.49 µM. It also gave a GI50 (HT29 colon) of 1.73 µM, a TGI (HT29 colon) of 3.24 µM and a GI50 (CCRF-CEM leukemia) of 1.92 µM. For the same compound, the TGI (CCRF-CEM leukemia) was 3.43 µM, the GI50 (ACHN renal) was 0.0285 µM and the TGI (ACHN renal) was 0.65 µM. For the same compound, the GI50 (T-47D breast) was 1.63 µM, the TGI (T-47D breast) was 4.1 µM and the GI50 (KM12 colon) was 1.98 µM. For the same compound, the TGI (KM12 colon) was 3.82 µM, the GI50 (SR leukemia) was < 0.01 µM and the GI50 (OVCAR-4 ovarian) was 1.91 µM. For the same compound, the TGI (OVCAR-4 ovarian) was 5.55 µM, the GI50 (COLO 205 colon) was 1.91 µM and the TGI (COLO 205 colon) was 3.42 µM. It also gave a GI50 (SF-268 CNS) of 2.12 µM, a TGI (SF-268 CNS) of 4.56 µM and a GI50 (RXF 393 renal) of 1.42 µM. For the same compound, the TGI (RXF 393 renal) was 2.84 µM, the GI50 (NCI-H226 lung) was 0.0118 µM and the TGI (NCI-H226 lung) was 0.0659 µM. The GI50 (MDA-MB-468 breast) was 1.93 µM, the TGI (MDA-MB-468 breast) was 3.71 µM and the GI50 (HCT-15 colon) was 1.91 µM. It also gave a TGI (HCT-15 colon) of 3.69 µM, a GI50 (IGROV1 ovarian) of 0.224 µM and a TGI (IGROV1 ovarian) of 2.44 µM. The GI50 (RPMI-8226 leukemia) was 1.66 µM, the TGI (RPMI-8226 leukemia) was 3.04 µM and the GI50 (UACC-62 melanoma) was < 0.01 µM. It also gave a TGI (UACC-62 melanoma) of 1.07 µM and a GI50 (NCI-H23 lung) of 2.04 µM.
